What was measured:
in vivo [1] = conditions: Wistar Han, rat, iv
in vivo [2] = conditions: Wistar Han, rat, iv; remark: listed apart in the source
in vivo [3] = conditions: Wistar Han, rat, iv; remark: listed apart in the source
in vivo [4] = conditions: Wistar Han, rat, at 0.6 to 2 µmol/kg
in vivo [5] = conditions: Wistar Han, rat, lung
in vitro [6] = conditions: Wistar Han, rat, lung S9 fraction
in vitro [7] = conditions: rat, plasma
in vivo [8] = conditions: Wistar Han, rat, urine, iv; at 0.6 to 2 µmol/kg
in vitro [9] = conditions: rat, plasma; remark: listed apart in the source
in vitro [10] = conditions: human, lung S9 fraction

| SMILES | clearance (in vivo [1]) [mL/min/kg] | Vd (in vivo [2]) [L/kg] | half-life (in vivo [3]) [min] | bioavailability (in vivo [4]) [%] | MRT (in vivo [5]) [h] | half-life at 1 h, 10 µM (in vitro [6]) [min] | remaining at 18 h (in vitro [7]) [%] | dose excreted (in vivo [8]) [%] | remaining at 2 h (in vitro [9]) [%] | half-life (in vitro [10]) [min] |
| --- | --- | --- | --- | --- | --- | --- | --- | --- | --- | --- |
| CC(=O)N[C@H]1CSCCC(=O)N2CN3CN(C2)C(=O)CCSC[C@H](NC(=O)[C@H](CC(=O)O)NC(=O)[C@H](CCC(=O)O)NC(=O)[C@H](CC(C)C)NC(=O)[C@H](Cc2c[nH]c4ccccc24)NC(=O)[C@H](CCC(N)=O)NC1=O)C(=O)N[C@@H](Cc1c[nH]c2ccccc12)C(=O)N[C@@H](CCCNC(=N)N)C(=O)NCC(=O)N[C@@H](Cc1ccc(F)cc1)C(=O)N[C@H](C(=O)N[C@@H](C)C(N)=O)CSCCC3=O | 42 | 0.3 | 5 | 3.4 | 1.2 | 144 | > 50 | – | – | – |
| CC(=O)N[C@H]1CSCCC(=O)N2CN3CN(C2)C(=O)CCSC[C@H](NC(=O)[C@H](CC(=O)O)NC(=O)[C@H](CCC(=O)O)NC(=O)[C@H](CC(C)(C)C)NC(=O)C(Cc2cn(C)c4ccccc24)NC(=O)[C@H](CCC(N)=O)NC1=O)C(=O)N[C@@H](Cc1cn(C)c2ccccc12)C(=O)N[C@@H](CCCNC(=N)N(C)C)C(=O)NCC(=O)N[C@@H](Cc1ccc(F)cc1)C(=O)N[C@H](C(N)=O)CSCCC3=O (some centres undefined) | 12 | 0.42 | 26 | 24.7 | 1.3 | – | > 50 | 1 | – | – |
| CC(=O)N[C@H]1CSCCC(=O)N2CN3CN(C2)C(=O)CCSC[C@@H](NC(=O)[C@H](CC(N)=O)NC(=O)[C@H](CCC(=O)O)NC(=O)[C@H](CC(C)C)NC(=O)[C@H](Cc2c[nH]c4ccccc24)NC(=O)[C@H](Cc2c[nH]cn2)NC1=O)C(=O)N[C@@H](Cc1c[nH]c2ccccc12)C(=O)N[C@@H](CCCNC(=N)N)C(=O)NCC(=O)N[C@@H](Cc1ccccc1)C(=O)N[C@H](C(N)=O)CSCCC3=O | – | – | – | – | – | < 5 | – | – | 90 | < 5 |
| CC(=O)N[C@H]1CSCCC(=O)N2CN3CN(C2)C(=O)CCSC[C@H](NC(=O)[C@H](CC(=O)O)NC(=O)[C@H](CCC(N)=O)NC(=O)[C@H](CC(C)(C)C)NC(=O)[C@H](Cc2cn(C)c4ccccc24)NC(=O)[C@H](C)N(C)C1=O)C(=O)N[C@@H](Cc1cn(C)c2ccccc12)C(=O)N[C@@H](CCCNC(=N)N(C)C)C(=O)NCC(=O)N[C@@H](Cc1ccc(F)cc1)C(=O)N[C@H](C(N)=O)CSCCC3=O | – | – | – | – | – | 143 | > 50 | – | – | – |
| CC(=O)N[C@H]1CSCCC(=O)N2CN3CN(C2)C(=O)CCSC[C@H](NC(=O)[C@H](CC(N)=O)NC(=O)[C@H](CCC(=O)O)NC(=O)[C@H](CC(C)C)NC(=O)[C@H](Cc2c[nH]c4ccccc24)NC(=O)[C@H](Cc2c[nH]cn2)NC1=O)C(=O)N[C@@H](Cc1c[nH]c2ccccc12)C(=O)N[C@@H](CCCNC(=N)N)C(=O)NCC(=O)N[C@@H](Cc1ccccc1)C(=O)N[C@H](C(N)=O)CSCCC3=O | 6.3 | 0.6 | 66 | 33.9 | > 24 | – | > 50 | 64 | – | – |
| CC(=O)N[C@H]1CSCCC(=O)N2CN3CN(C2)C(=O)CCSC[C@@H]2NC(=O)[C@H](CC(=O)O)NC(=O)[C@H](CCC(=O)O)NC(=O)[C@H](CC(C)C)NC(=O)[C@H](CC/C=C/CC[C@H](NC(=O)[C@H](Cc4c[nH]c5ccccc45)NC2=O)C(=O)NCC(=O)N[C@@H](Cc2ccc(F)cc2)C(=O)N[C@H](C(N)=O)CSCCC3=O)NC(=O)[C@H](CCC(N)=O)NC1=O | 46 | 0.21 | 3 | 5.9 | 0.5 | 48 | > 50 | 0.1 | – | – |
| CC(=O)N[C@H]1CSCCC(=O)N2CN3CN(C2)C(=O)CCSC[C@H](NC(=O)[C@H](CC(=O)O)NC(=O)[C@H](CCC(N)=O)NC(=O)[C@H](CC(C)(C)C)NC(=O)[C@H](Cc2cccc4ccccc24)NC(=O)[C@H](C)N(C)C1=O)C(=O)N[C@@H](Cc1cn(C)c2ccccc12)C(=O)N[C@@H](CCCNC(=N)N(C)C)C(=O)NCC(=O)N[C@@H](Cc1ccc(F)cc1)C(=O)N[C@H](C(=O)N[C@@H](C)C(N)=O)CSCCC3=O | 6.4 | 0.41 | 45 | 23 | 2.4 | – | > 50 | 0.9 | – | – |
| CC(=O)N[C@H]1CSCCC(=O)N2CN3CN(C2)C(=O)CCSC[C@@H]2NC(=O)[C@H](CC(=O)O)NC(=O)[C@H](CCC(=O)O)NC(=O)[C@H](CC(C)C)NC(=O)[C@H](CCCCCC[C@H](NC(=O)[C@H](Cc4c[nH]c5ccccc45)NC2=O)C(=O)NCC(=O)N[C@@H](Cc2ccc(F)cc2)C(=O)N[C@H](C(N)=O)CSCCC3=O)NC(=O)[C@H](CCC(N)=O)NC1=O | – | – | – | – | – | 34 | > 50 | – | – | – |
| CC(=O)N[C@H]1CSCCC(=O)N2CN3CN(C2)C(=O)CCSC[C@H](NC(=O)[C@H](CC(=O)O)NC(=O)[C@H](CCC(=O)O)NC(=O)[C@H](CC(C)C)NC(=O)[C@H](Cc2cccc4ccccc24)NC(=O)[C@H](CCC(N)=O)NC1=O)C(=O)N[C@@H](Cc1c[nH]c2ccccc12)C(=O)N[C@@H](CCCNC(=N)N(C)C)C(=O)NCC(=O)N[C@@H](Cc1ccc(F)cc1)C(=O)N[C@H](C(=O)N[C@@H](C)C(N)=O)CSCCC3=O | 23 | 0.23 | 7 | 8.6 | 2.2 | – | > 50 | 0.3 | – | – |
| CC(=O)N[C@H]1CSCCC(=O)N2CN3CN(C2)C(=O)CCSC[C@H](NC(=O)[C@H](CC(=O)O)NC(=O)[C@H](CCC(=O)O)NC(=O)[C@H](CC(C)C)NC(=O)[C@H](Cc2cccc4ccccc24)NC(=O)[C@H](CCC(N)=O)NC1=O)C(=O)N[C@@H](Cc1c[nH]c2ccccc12)C(=O)N[C@@H](CCCNC(=N)N(C)C)C(=O)NCC(=O)N[C@@H](Cc1ccc(F)cc1)C(=O)N[C@H](C(N)=O)CSCCC3=O | – | – | – | – | – | 83 | > 50 | – | – | – |
| CC(=O)N[C@H]1CSCCC(=O)N2CN3CN(C2)C(=O)CCSC[C@H](NC(=O)[C@@H](CC(=O)O)NC(=O)[C@H](CCC(=O)O)NC(=O)[C@H](CC(C)C)NC(=O)[C@H](Cc2c[nH]c4ccccc24)NC(=O)[C@@H](CCC(N)=O)NC1=O)C(=O)N[C@@H](Cc1c[nH]c2ccccc12)C(=O)N[C@@H](CCCNC(=N)N)C(=O)NCC(=O)N[C@@H](Cc1ccc(F)cc1)C(=O)N[C@H](C(=O)O)CSCCC3=O | 45 | 0.13 | 2 | 2.3 | 1 | 67 | > 50 | – | – | – |
| CC(=O)N[C@H]1CSCCC(=O)N2CN3CN(C2)C(=O)CCSC[C@H](NC(=O)[C@H](CC(=O)O)NC(=O)[C@H](CCC(N)=O)NC(=O)[C@H](CC(C)(C)C)NC(=O)[C@H](Cc2cn(C)c4ccccc24)NC(=O)[C@H](CCC(N)=O)NC1=O)C(=O)N[C@@H](Cc1cn(C)c2ccccc12)C(=O)N[C@@H](CCCNC(=N)N(C)C)C(=O)NCC(=O)N[C@@H](Cc1ccc(F)c(Cl)c1)C(=O)N[C@H](C(N)=O)CSCCC3=O | 6.4 | 0.32 | 35 | 22.5 | 1.8 | 92 | > 50 | 0.8 | – | – |
| CC(=O)N[C@H]1CSCCC(=O)N2CN3CN(C2)C(=O)CCSC[C@H](NC(=O)[C@H](CC(=O)O)NC(=O)[C@H](CCC(=O)O)NC(=O)[C@H](CC(C)C)NC(=O)[C@H](Cc2c[nH]c4ccccc24)NC(=O)[C@H](CCC(N)=O)NC1=O)C(=O)N[C@@H](Cc1c[nH]c2ccccc12)C(=O)N[C@@H](CCCNC(=N)N)C(=O)NCC(=O)N[C@@H](Cc1ccc(F)cc1)C(=O)N[C@H](C(N)=O)CSCCC3=O | – | – | – | – | – | 35 | > 50 | – | – | – |

— ChEMBL document CHEMBL5537198, “Discovery and Characterization of a Bicyclic Peptide (Bicycle) Binder to Thymic Stromal Lymphopoietin” (J Med Chem, 2024)
